Measurements as given in patent US7163939.
Read-outs that look alike come from different tables or passages of the source.

Details: rcm bond

Compound: N#Cc1ncc2nc1OCCC=CCOc1cc(N)c(Cl)cc1NC(=O)N2
- ring closure, isolated yield (from C=CCCOc1nc(NC(=O)Nc2cc(Cl)c(N)cc2OCC=C)cnc1C#N, 15-membered ring, Grubbs II (10 mol%), DMSO workup, CH2Cl2, 1.96 mM, 25.0 °C, 16.0 h): 77%

Compound: N#Cc1ncc2nc1OCCC=CCOc1c(F)cc(Cl)cc1NC(=O)N2
- ring closure, isolated yield (from C=CCCOc1nc(NC(=O)Nc2cc(Br)cc(F)c2OCC=C)cnc1C#N, 15-membered ring, Grubbs II (10 mol%), CH2Cl2, 1.47 mM, 25.0 °C, 6.0 h): 64%

Compound: N#Cc1ncc2nc1OCC=CCOc1ccc(Cl)cc1NC(=O)N2
- ring closure, isolated yield (from C=CCOc1ccc(Cl)cc1NC(=O)Nc1cnc(C#N)c(OCC=C)n1, 14-membered ring, Grubbs II (15 mol%), CH2Cl2, 1.8 mM, 40.0 °C, 16.0 h): 54%

Compound: N#Cc1ncc2nc1OCCC=CCOc1ncc(Cl)cc1NC(=O)N2
- ring closure, isolated yield (from C=CCCOc1nc(NC(=O)Nc2cc(Cl)cnc2OCC=C)cnc1C#N, 15-membered ring, Grubbs II (15 mol%), CH2Cl2, 2.75 mM, 40.0 °C, 16.0 h): 36%

Compound: CC1C=CCCOc2nc(cnc2C#N)NC(=O)Nc2cc(Cl)ccc2O1 (stereo not drawn)
- ring closure, isolated yield (from C=CCCOc1nc(NC(=O)Nc2cc(Cl)ccc2OC(C)C=C)cnc1C#N, 15-membered ring, Grubbs II (10 mol%), CH2Cl2, 1.97 mM, 25.0 °C, 36.0 h): 63%

Compound: 2-oxo-18-[3-(tetrahydro-2H-pyran-2-yloxy)propyl]-2,3,11,14-tetrahydro-1H,10H-8,4-epiazeno-9,15,1,3,6-benzodioxatriazacycloheptadecine-7-carbonitrile
- ring closure, isolated yield (15-membered ring): 37%

Compound: Cc1cc(Cl)c2c(c1)NC(=O)Nc1cnc(C#N)c(n1)OCCC=CCO2
- ring closure, isolated yield (from C=CCCOc1nc(NC(=O)Nc2cc(C)cc(Br)c2OCC=C)cnc1C#N, 15-membered ring, Grubbs II (10 mol%), CH2Cl2, 2.11 mM, 40.0 °C, 16.0 h): 72%

Compound: O=C1Nc2cncc(n2)OCCC=CCOc2ccc(Cl)cc2N1
- ring closure, isolated yield (from C=CCCOc1cncc(NC(=O)Nc2cc(Cl)ccc2OCC=C)n1, 15-membered ring, Grubbs II (15 mol%), CH2Cl2, 2.4 mM, 50.0 °C, 16.0 h): 40%

Compound: C[Si](C)(C)CCOCOc1cc2c(cc1Cl)NC(=O)Nc1cnc(C#N)c(n1)OCCC=CCO2
- ring closure, isolated yield (from C=CCCOc1nc(NC(=O)Nc2cc(Cl)c(OCOCC[Si](C)(C)C)cc2OCC=C)cnc1C#N, 15-membered ring, Grubbs II (10 mol%), DMSO workup, CH2Cl2, 1.5 mM, 25.0 °C, 16.0 h): 92%
